Data published in article PMC12589546, “A plastid carbohydrate carrier mediates ribose recycling from nucleotide catabolism and glucose export from starch degradation” (Nature Communications, 2025).

Target: T1, At-pGlcT (At-pGlcTNTD) (Arabidopsis thaliana, UniProt B9DGP1)
T1 construct: gene At5g16150; plastid transit peptide (residues 1-82) replaced by E. coli PhoR residues 1-54 (membrane-targeting NTD); C-terminal 6xHis tag kept; expressed in E. coli sugar-uptake mutants, intact-cell uptake
T1 sequence (B9DGP1 83-546): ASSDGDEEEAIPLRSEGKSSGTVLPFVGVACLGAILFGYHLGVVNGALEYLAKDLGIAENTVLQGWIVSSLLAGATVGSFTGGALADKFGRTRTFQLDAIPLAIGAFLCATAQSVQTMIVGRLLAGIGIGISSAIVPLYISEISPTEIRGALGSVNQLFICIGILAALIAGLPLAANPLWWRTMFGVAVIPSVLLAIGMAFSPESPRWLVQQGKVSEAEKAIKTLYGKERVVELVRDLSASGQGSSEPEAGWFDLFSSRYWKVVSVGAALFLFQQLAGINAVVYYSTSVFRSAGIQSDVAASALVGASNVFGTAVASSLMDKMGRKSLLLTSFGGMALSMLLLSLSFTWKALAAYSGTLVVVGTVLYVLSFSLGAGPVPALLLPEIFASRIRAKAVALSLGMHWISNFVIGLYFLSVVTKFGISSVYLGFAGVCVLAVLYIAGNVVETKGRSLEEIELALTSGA
Experiment: competition with […]-ribose uptake in E. coli ΔrbsC ΔxylH ΔalsC
Format: cell-based
Settings: 1 mM 14C-ribose, 10 mM unlabelled sugar, pH 7, 37 °C, 30 min, competitive

SMILES | inhibition of 14C-ribose uptake at 10 mM (3H-fructose uptake also measured) | inhibition of 14C-ribose uptake at 10 mM (14C-glucose uptake also measured)
OCC1(O)OC[C@@H](O)[C@@H](O)[C@@H]1O (some centres unmarked) [fructose] | its presence also reduced the uptake of the radioactively labeled ribose | 
OC[C@H]1OC(O)[C@H](O)[C@@H](O)[C@@H]1O (some centres unmarked) [glucose] |  | but also glucose was an equally efficient suppressor
